Converted amounts (≈) assume the structure as drawn. Where a SMILES comes first, the peptide text is derived from it. The star is where a group is joined. βNA = c1ccc2cc(N*)ccc2c1
Experiments:
Escherichia coli [1] = assay: Antibacterial activity against multi drug-resistant Escherichia coli KG1 after 24 hrs by serial dilution method; type: functional; conditions: KG1, 24 h
Escherichia coli [2] = assay: Antibacterial activity against multi drug-resistant Escherichia coli EM7 mutant after 24 hrs by serial dilution method; type: functional
Escherichia coli [3] = assay: Antibacterial activity against multi drug-resistant Escherichia coli KG4 after 24 hrs by serial dilution method; type: functional; conditions: KG4, 24 h
Escherichia coli [4] = assay: Antibacterial activity against multi drug-resistant Escherichia coli EM5 mutant after 24 hrs by serial dilution method; type: functional
Escherichia coli [5] = assay: Antibacterial activity against multi drug-sensitive Escherichia coli MTCC 739 after 24 hrs by serial dilution method; type: functional; conditions: MTCC 739, 24 h
Staphylococcus aureus [6] = assay: Inhibition of biofilm formation in Staphylococcus aureus ATCC 25923 at 1.5 ug/ml after 24 hrs by MTT assay; type: functional; conditions: ATCC 25923, 24 h
[7] = test system: Staphylococcus epidermidis; assay: Inhibition of biofilm formation in Staphylococcus epidermidis RP62A at 1.5 ug/ml after 24 hrs by MTT assay; type: functional
[8] = test system: Staphylococcus epidermidis; assay: Inhibition of biofilm formation in Staphylococcus epidermidis DSM 3269 at 1.5 ug/ml after 24 hrs by MTT assay; type: functional; conditions: DSM 3269, 24 h
Staphylococcus aureus [9] = assay: Inhibition of biofilm formation in Staphylococcus aureus ATCC 29213 at 1.5 ug/ml after 24 hrs by MTT assay; type: functional; conditions: ATCC 29213, 24 h
Staphylococcus aureus [10] = assay: Inhibition of biofilm formation in Staphylococcus aureus ATCC 657 at 1.5 ug/ml after 24 hrs by MTT assay; type: functional; conditions: ATCC 657, 24 h
Staphylococcus aureus [11] = assay: Inhibition of biofilm formation in Staphylococcus aureus ATCC 702 at 1.5 ug/ml after 24 hrs by MTT assay; type: functional; conditions: ATCC 702, 24 h
[12] = Inhibition of bacterial IMP-1 using nitrocefin as substrate; parameters: species or system Bacteria
[13] = Inhibition of bacterial CMY by measuring nitrocefin degradation; parameters: species or system Bacteria
[14] = Inhibition of bacterial CTX-M by measuring nitrocefin degradation; parameters: species or system Bacteria
[15] = Inhibition of bacterial KPC by measuring nitrocefin degradation; parameters: species or system Bacteria
[16] = Inhibition of bacterial SHV by measuring nitrocefin degradation; parameters: species or system Bacteria
[17] = biological target: T1, Quinolone resistance protein NorA (Staphylococcus aureus) (UniProt P0A0J7); assay: Inhibition of Staphylococcus aureus 1199B NorA assessed as potentiation of ciprofloxacin-induced antibacterial activity at 0.5 ug/ml after 24 hrs
T1 sequence (whole entry): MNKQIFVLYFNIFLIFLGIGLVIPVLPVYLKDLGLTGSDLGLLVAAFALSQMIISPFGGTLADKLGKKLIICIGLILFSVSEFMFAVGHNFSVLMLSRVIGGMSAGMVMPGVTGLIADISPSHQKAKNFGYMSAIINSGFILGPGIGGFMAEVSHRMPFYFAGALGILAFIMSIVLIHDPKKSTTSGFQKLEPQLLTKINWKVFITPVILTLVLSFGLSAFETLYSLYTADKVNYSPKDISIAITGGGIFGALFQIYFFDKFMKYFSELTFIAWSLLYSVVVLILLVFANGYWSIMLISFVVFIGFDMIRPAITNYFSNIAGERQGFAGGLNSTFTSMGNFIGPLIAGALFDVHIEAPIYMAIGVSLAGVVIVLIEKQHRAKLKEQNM

Staphylococcus aureus [18] = assay: Antibacterial activity against Staphylococcus aureus 1199B after 24 hrs by broth microdilution method; type: functional
[19] = biological target: T1, Quinolone resistance protein NorA (Staphylococcus aureus); assay: Inhibition of Staphylococcus aureus 1199B NorA assessed as potentiation of ciprofloxacin-induced antibacterial activity at 2 ug/ml after 24 hrs
Staphylococcus aureus [20] = assay: Antibacterial activity against Staphylococcus aureus ATCC 25923 after 24 hrs by broth microdilution method; type: functional; conditions: ATCC 25923, 24 h
Enterobacter = assay: Antimicrobial activity against Enterobacter; type: functional
Escherichia coli [21] = assay: Antimicrobial activity against Escherichia coli; type: functional
[22] = Inhibition of Escherichia coli PBP2
Pseudomonas aeruginosa [23] = assay: Antimicrobial activity against Pseudomonas aeruginosa; type: functional
[24] = biological target: T1, Quinolone resistance protein NorA (Staphylococcus aureus); assay: Inhibition of Staphylococcus aureus 1199B NorA assessed as potentiation of ciprofloxacin-induced antibacterial activity at 32 ug/ml after 24 hrs (reference value: 16 ug/ml)
[25] = Inhibition of Klebsiella pneumoniae NP6 KPC-2 expressed in Escherichia coli DH5alpha
Pseudomonas aeruginosa [26] = assay: Inhibition of Pseudomonas aeruginosa MexAB-Oprm assessed as potentiation of levofloxacin-induced antibacterial activity at 50 ug/ml (reference value: 16 ug/ml)
Pseudomonas aeruginosa [27] = assay: Inhibition of Pseudomonas aeruginosa MexAB-Oprm assessed as potentiation of ciprofloxacin-induced antibacterial activity at 50 ug/ml (reference value: 16 ug/ml)
[28] = Inhibition of Mycobacterium tuberculosis Eis
Escherichia coli [29] = assay: Potentiation of tetracycline induced-antimicrobial activity against Escherichia coli assessed as fold reduction in tetracycline MIC at 25 ug/ml after 24 hrs by broth checkerboard method; type: functional

SMILES: O=C(O[C@H]1CCC(=O)c2ccccc21)c1ccccc1 [4-O-BENZOYL-ALPHA-TETRALONE]
- MIC (Escherichia coli [1]): 250 to 1000 µg/mL (≈ 939 to 3760 µM)
- MIC (Escherichia coli [2]): 250 to 1000 µg/mL (≈ 939 to 3760 µM)
- MIC (Escherichia coli [3]): 250 to 1000 µg/mL (≈ 939 to 3760 µM)
- MIC (Escherichia coli [4]): 250 to 1000 µg/mL (≈ 939 to 3760 µM)
- MIC (Escherichia coli [5]): 250 to 1000 µg/mL (≈ 939 to 3760 µM)

SMILES: O=C(c1cc(Br)ccc1O)c1[nH]c(Cl)c(Br)c1Br
- inhibition at 1.5 µg/mL (Staphylococcus aureus [6]): > 60%
- inhibition at 1.5 µg/mL [7]: > 60%
- inhibition at 1.5 µg/mL [8]: > 60%
- inhibition at 1.5 µg/mL (Staphylococcus aureus [9]): > 60%
- inhibition at 1.5 µg/mL (Staphylococcus aureus [10]): > 60%
- inhibition at 1.5 µg/mL (Staphylococcus aureus [11]): > 60%

SMILES: O=C(O)[C@@H](Cc1ccc2c(c1)OCO2)[C@H](Cc1ccc2c(c1)OCO2)C(=O)O
- IC50 [12]: 2.7 to 9 nM

SMILES: O=C(c1cc(Cl)cc(Cl)c1O)c1[nH]c(Cl)c(Cl)c1Cl
- inhibition at 1.5 µg/mL (Staphylococcus aureus [6]): > 60%
- inhibition at 1.5 µg/mL [7]: > 60%
- inhibition at 1.5 µg/mL [8]: > 60%
- inhibition at 1.5 µg/mL (Staphylococcus aureus [9]): > 60%
- inhibition at 1.5 µg/mL (Staphylococcus aureus [10]): > 60%
- inhibition at 1.5 µg/mL (Staphylococcus aureus [11]): > 60%

SMILES: CCCCCCCCCCCCCC(=O)O[C@H]1CCC(=O)c2ccccc21 [4-O-MYRICITOYL-ALPHA-TETRALONE]
- MIC (Escherichia coli [1]): 250 to 1000 µg/mL (≈ 671 to 2680 µM)
- MIC (Escherichia coli [2]): 250 to 1000 µg/mL (≈ 671 to 2680 µM)
- MIC (Escherichia coli [3]): 250 to 1000 µg/mL (≈ 671 to 2680 µM)
- MIC (Escherichia coli [4]): 250 to 1000 µg/mL (≈ 671 to 2680 µM)
- MIC (Escherichia coli [5]): 250 to 1000 µg/mL (≈ 671 to 2680 µM)

SMILES: CCCCCCCCCCCCCCCC(=O)O[C@H]1CCC(=O)c2ccccc21 [4-O-PALMITOYL-ALPHATETRALONE]
- MIC (Escherichia coli [1]): 250 to 1000 µg/mL (≈ 624 to 2500 µM)
- MIC (Escherichia coli [2]): 250 to 1000 µg/mL (≈ 624 to 2500 µM)
- MIC (Escherichia coli [3]): 250 to 1000 µg/mL (≈ 624 to 2500 µM)
- MIC (Escherichia coli [4]): 250 to 1000 µg/mL (≈ 624 to 2500 µM)
- MIC (Escherichia coli [5]): 250 to 1000 µg/mL (≈ 624 to 2500 µM)

SMILES: O=C(O)C[C@@H]1CC[C@H](NC(=O)Cc2cccs2)B(O)O1 [VABORBACTAM]
- Ki [13]: 29 to 99 nM
- Ki [14]: 29 to 99 nM
- Ki [15]: 29 to 99 nM
- Ki [16]: 29 to 99 nM

SMILES: O=C(c1cc(Br)ccc1O)c1[nH]c(Br)c(Cl)c1Br
- inhibition at 1.5 µg/mL (Staphylococcus aureus [6]): > 60%
- inhibition at 1.5 µg/mL [7]: > 60%
- inhibition at 1.5 µg/mL [8]: > 60%
- inhibition at 1.5 µg/mL (Staphylococcus aureus [9]): > 60%
- inhibition at 1.5 µg/mL (Staphylococcus aureus [10]): > 60%
- inhibition at 1.5 µg/mL (Staphylococcus aureus [11]): > 60%

SMILES: CC(C)(C)OC(=O)NCC(NC(=O)C(=O)c1c[nH]c2ccccc12)c1c[nH]c2ccccc12 (stereo unspecified)
- MIC [17]: 4 µg/mL
- MIC (Staphylococcus aureus [18]): > 32 µg/mL
- MIC [19]: 2 µg/mL
- MIC (Staphylococcus aureus [20]): > 32 µg/mL

SMILES: O=C(NNC(=O)[C@@H]1CC[C@@H]2CN1C(=O)N2OS(=O)(=O)[O-])C1CNC1.[Na+]
- MIC (Enterobacter): ≤ 2 µg/mL
- MIC (Escherichia coli [21]): ≤ 2 µg/mL
- IC50 [22]: 3600 nM
- MIC (Pseudomonas aeruginosa [23]): ≤ 2 µg/mL

SMILES: O=C(O)[C@@H](Cc1ccc2c(c1)OCO2)[C@@H](Cc1ccc2c(c1)OCO2)C(=O)O
- IC50 [12]: 200000 nM

SMILES: O=C(NC(C(=O)O)c1c[nH]c2ccc(Br)cc12)c1c[nH]c2ccc(Br)cc12 (stereo unspecified)
- MIC (Staphylococcus aureus [18]): > 32 µg/mL
- MIC (Staphylococcus aureus [20]): > 32 µg/mL
- MIC [24]: 4 µg/mL

SMILES: CC(=O)Nc1ccc(S(=O)(=O)Nc2ccccc2NS(=O)(=O)c2ccc(NC(C)=O)cc2)cc1
- IC50 [25]: 200000 nM

SMILES: N=C(N)NCCC[C@H](NC(=O)[C@@H](N)Cc1ccccc1)C(=O)Nc1ccc2ccccc2c1 (H-Phe-Arg-βNA)
- MIC (Pseudomonas aeruginosa [26]): 2 µg/mL
- MIC (Pseudomonas aeruginosa [27]): 2 µg/mL

SMILES: O=C(C[n+]1ccn2cccc2c1-c1ccccc1)c1ccccc1
- IC50 [28]: 188 nM

SMILES: O=C(c1cc(Br)ccc1O)c1[nH]c(Br)c(Br)c1Br
- inhibition at 1.5 µg/mL (Staphylococcus aureus [6]): > 60%
- inhibition at 1.5 µg/mL [7]: > 60%
- inhibition at 1.5 µg/mL [8]: > 60%
- inhibition at 1.5 µg/mL (Staphylococcus aureus [9]): > 60%
- inhibition at 1.5 µg/mL (Staphylococcus aureus [10]): > 60%
- inhibition at 1.5 µg/mL (Staphylococcus aureus [11]): > 60%

SMILES: O=C(NOC1CCNC1)[C@@H]1CC[C@@H]2CN1C(=O)N2OS(=O)(=O)[O-].[Na+] (stereo partly specified)
- MIC (Enterobacter): ≤ 2 µg/mL
- MIC (Escherichia coli [21]): ≤ 2 µg/mL
- IC50 [22]: 16000 nM
- MIC (Pseudomonas aeruginosa [23]): ≤ 2 µg/mL

SMILES: COc1cc(C(=O)O[C@H]2CCC(=O)c3ccccc32)cc(OC)c1OC [4-O-(3,4,5-TRIMETHOXYBENZOYL)-ALPHA-TETRALONE]
- MIC (Escherichia coli [1]): 250 to 1000 µg/mL (≈ 702 to 2810 µM)
- MIC (Escherichia coli [2]): 250 to 1000 µg/mL (≈ 702 to 2810 µM)
- MIC (Escherichia coli [3]): 250 to 1000 µg/mL (≈ 702 to 2810 µM)
- MIC (Escherichia coli [4]): 250 to 1000 µg/mL (≈ 702 to 2810 µM)
- fold change (FC) (Escherichia coli [29]): 8
- MIC (Escherichia coli [5]): 250 to 1000 µg/mL (≈ 702 to 2810 µM)

SMILES: O=C1CC[C@H](O)c2ccccc21 [(-)-4-HYDROXY-ALPHA-TETRALONE]
- MIC (Escherichia coli [1]): 250 to 1000 µg/mL (≈ 1540 to 6170 µM)
- MIC (Escherichia coli [2]): 250 to 1000 µg/mL (≈ 1540 to 6170 µM)
- MIC (Escherichia coli [3]): 250 to 1000 µg/mL (≈ 1540 to 6170 µM)
- MIC (Escherichia coli [4]): 250 to 1000 µg/mL (≈ 1540 to 6170 µM)
- fold change (FC) (Escherichia coli [29]): 4
- MIC (Escherichia coli [5]): 250 to 1000 µg/mL (≈ 1540 to 6170 µM)
